Laboratory results: ChEMBL document CHEMBL5465560, “Selectivity Literature for EUbOPEN Chemogenomic Library” (2024)
pIC50: −log10 of the molar value.

Key:
[1] = biological target: Microtubule-associated serine/threonine-protein kinase 1 (Homo sapiens) (UniProt Q9Y2H9); assay: Selectivity interaction (KinomeScan (DiscoverX)) EUB0001877a MAST1; settings: at 1 µM
[2] = biological target: CREB-binding protein (Homo sapiens, UniProt Q92793); assay: Selectivity interaction (Bromodomain panel (DSF assays, literature)) EUB0000102c CREBBP
[3] = biological target: Potassium voltage-gated channel subfamily E member 1 (Homo sapiens, UniProt P15382); assay: Selectivity interaction (BET inhibitor selectivity panel (Human Blocker ionworks assay)) EUB0000102c KCNE1
[4] = biological target: Potassium voltage-gated channel subfamily KQT member 1 (Homo sapiens, UniProt P51787); assay: Selectivity interaction (BET inhibitor selectivity panel (Human Blocker ionworks assay)) EUB0000102c KCNQ1
[5] = biological target: 5-hydroxytryptamine receptor 1A (Homo sapiens, UniProt P08908); assay: Selectivity interaction (BET inhibitor selectivity panel (Human SPA binding assay)) EUB0000102c HTR1A
[6] = biological target: Substance-K receptor (Homo sapiens) (UniProt P21452); assay: Selectivity interaction (CEREP panel (GPCRs, ion channels, and transporters)) EUB0000102c TACR2; settings: at 10 µM
[7] = biological target: Sodium-dependent noradrenaline transporter (Homo sapiens, UniProt P23975); assay: Selectivity interaction (BET inhibitor selectivity panel (Human SPA binding assay)) EUB0000102c SLC6A2
[8] = biological target: Voltage-gated inwardly rectifying potassium channel KCNH3 (Homo sapiens, UniProt Q9ULD8); assay: Selectivity interaction (BET inhibitor selectivity panel (Human FP binding assay)) EUB0000102c KCNH3
[9] = biological target: 5-hydroxytryptamine receptor 3A (Homo sapiens, UniProt P46098); assay: Selectivity interaction (BET inhibitor selectivity panel (Human antagonist intracellular Ca2+ fluorescence assay)) EUB0000102c HTR3A; type: cell-based
[10] = biological target: Voltage-dependent P/Q-type calcium channel subunit alpha-1A (Homo sapiens, UniProt O00555); assay: Selectivity interaction (BET inhibitor selectivity panel (Human blocker intracellular Ca2+ fluorescence assay)) EUB0000102c CACNA1A; type: cell-based

Sequence of 5-hydroxytryptamine receptor 3A (P46098 whole entry): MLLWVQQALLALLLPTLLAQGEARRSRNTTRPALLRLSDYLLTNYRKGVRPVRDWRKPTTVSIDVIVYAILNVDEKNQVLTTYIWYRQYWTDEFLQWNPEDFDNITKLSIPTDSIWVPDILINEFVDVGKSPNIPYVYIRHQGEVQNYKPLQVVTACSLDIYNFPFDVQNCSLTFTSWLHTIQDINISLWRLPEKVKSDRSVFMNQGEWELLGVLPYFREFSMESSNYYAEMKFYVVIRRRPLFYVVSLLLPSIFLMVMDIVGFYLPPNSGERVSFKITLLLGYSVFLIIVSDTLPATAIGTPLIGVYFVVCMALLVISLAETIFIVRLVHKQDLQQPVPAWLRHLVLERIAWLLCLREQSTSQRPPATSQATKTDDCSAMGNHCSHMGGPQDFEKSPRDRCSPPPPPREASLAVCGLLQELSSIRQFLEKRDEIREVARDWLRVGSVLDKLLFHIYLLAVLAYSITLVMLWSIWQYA
Sequence of Voltage-gated inwardly rectifying potassium channel KCNH3 (Q9ULD8 whole entry): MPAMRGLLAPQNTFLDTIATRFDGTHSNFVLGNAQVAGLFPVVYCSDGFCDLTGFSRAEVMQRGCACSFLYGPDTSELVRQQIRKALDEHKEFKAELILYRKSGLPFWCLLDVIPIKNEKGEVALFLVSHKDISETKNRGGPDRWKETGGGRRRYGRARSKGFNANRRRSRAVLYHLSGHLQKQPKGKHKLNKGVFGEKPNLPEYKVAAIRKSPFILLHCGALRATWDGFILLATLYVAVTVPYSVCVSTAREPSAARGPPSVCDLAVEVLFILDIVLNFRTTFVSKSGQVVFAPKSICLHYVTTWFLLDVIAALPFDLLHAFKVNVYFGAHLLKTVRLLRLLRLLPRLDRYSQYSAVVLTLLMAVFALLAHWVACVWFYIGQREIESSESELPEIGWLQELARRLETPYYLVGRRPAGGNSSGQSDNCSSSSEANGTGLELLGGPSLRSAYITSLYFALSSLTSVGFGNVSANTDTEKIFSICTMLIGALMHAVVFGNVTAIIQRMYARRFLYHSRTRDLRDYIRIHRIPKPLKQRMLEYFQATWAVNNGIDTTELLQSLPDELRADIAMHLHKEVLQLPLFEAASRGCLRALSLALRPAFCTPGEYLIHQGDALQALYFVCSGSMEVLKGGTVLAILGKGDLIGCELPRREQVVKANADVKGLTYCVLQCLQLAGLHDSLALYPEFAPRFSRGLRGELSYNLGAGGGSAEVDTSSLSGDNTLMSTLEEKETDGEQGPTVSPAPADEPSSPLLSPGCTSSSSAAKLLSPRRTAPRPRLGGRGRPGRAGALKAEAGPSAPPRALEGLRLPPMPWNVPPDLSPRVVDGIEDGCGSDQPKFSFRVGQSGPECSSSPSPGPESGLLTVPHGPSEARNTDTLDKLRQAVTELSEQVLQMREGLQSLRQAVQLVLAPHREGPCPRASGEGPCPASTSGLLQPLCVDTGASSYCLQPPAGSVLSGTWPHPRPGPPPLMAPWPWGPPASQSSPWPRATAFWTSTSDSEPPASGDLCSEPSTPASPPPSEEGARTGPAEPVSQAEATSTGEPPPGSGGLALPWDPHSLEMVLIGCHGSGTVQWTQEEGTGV
Sequence of Sodium-dependent noradrenaline transporter (P23975 whole entry): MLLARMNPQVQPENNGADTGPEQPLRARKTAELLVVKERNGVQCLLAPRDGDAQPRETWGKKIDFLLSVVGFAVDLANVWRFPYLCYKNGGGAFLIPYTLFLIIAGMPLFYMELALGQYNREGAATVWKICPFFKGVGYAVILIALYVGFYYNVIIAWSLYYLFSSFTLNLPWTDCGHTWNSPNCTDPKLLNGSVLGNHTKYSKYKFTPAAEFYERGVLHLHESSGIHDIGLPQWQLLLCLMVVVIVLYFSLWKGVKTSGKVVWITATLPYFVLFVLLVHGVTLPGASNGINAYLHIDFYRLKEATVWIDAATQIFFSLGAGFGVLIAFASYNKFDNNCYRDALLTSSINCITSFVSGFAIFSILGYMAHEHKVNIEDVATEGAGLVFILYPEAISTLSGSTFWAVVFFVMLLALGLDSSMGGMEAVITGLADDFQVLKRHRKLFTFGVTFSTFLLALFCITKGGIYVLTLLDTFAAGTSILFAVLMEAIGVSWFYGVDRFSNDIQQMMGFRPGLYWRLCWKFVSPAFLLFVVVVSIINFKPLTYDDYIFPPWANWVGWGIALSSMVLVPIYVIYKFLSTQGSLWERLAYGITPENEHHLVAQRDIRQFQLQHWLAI
Sequence of Potassium voltage-gated channel subfamily KQT member 1 (P51787 whole entry): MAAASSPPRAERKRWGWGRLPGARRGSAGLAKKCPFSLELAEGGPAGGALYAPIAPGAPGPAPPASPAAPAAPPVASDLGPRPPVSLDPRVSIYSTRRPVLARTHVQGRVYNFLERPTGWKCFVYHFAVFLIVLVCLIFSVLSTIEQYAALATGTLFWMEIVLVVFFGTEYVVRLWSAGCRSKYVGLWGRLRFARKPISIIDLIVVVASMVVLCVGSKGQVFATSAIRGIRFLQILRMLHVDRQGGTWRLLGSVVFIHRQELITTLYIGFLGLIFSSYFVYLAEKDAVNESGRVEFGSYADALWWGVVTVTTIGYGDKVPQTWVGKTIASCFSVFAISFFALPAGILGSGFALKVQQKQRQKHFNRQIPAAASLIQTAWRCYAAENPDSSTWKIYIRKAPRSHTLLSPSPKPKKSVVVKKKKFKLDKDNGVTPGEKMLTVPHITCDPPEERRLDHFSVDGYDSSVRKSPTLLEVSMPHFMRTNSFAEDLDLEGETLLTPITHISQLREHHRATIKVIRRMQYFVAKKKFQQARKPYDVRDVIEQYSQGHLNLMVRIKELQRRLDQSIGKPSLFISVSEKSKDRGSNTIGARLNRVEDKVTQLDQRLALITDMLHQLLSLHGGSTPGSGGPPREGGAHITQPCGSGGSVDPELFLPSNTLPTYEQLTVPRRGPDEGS
Sequence of 5-hydroxytryptamine receptor 1A (P08908 whole entry): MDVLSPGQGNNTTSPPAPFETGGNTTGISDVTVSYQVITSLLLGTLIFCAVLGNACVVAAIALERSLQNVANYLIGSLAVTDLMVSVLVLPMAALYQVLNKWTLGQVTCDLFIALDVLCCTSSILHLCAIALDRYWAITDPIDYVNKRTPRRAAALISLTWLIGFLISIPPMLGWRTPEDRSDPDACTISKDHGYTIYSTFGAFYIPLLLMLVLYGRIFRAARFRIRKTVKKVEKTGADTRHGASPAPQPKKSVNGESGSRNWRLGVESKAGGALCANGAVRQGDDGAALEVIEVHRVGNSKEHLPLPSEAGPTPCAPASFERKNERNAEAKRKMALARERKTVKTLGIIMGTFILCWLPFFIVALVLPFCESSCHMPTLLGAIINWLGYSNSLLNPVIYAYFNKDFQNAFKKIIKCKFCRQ
Sequence of Microtubule-associated serine/threonine-protein kinase 1 (Homo sapiens) (Q9Y2H9 whole entry, looked up): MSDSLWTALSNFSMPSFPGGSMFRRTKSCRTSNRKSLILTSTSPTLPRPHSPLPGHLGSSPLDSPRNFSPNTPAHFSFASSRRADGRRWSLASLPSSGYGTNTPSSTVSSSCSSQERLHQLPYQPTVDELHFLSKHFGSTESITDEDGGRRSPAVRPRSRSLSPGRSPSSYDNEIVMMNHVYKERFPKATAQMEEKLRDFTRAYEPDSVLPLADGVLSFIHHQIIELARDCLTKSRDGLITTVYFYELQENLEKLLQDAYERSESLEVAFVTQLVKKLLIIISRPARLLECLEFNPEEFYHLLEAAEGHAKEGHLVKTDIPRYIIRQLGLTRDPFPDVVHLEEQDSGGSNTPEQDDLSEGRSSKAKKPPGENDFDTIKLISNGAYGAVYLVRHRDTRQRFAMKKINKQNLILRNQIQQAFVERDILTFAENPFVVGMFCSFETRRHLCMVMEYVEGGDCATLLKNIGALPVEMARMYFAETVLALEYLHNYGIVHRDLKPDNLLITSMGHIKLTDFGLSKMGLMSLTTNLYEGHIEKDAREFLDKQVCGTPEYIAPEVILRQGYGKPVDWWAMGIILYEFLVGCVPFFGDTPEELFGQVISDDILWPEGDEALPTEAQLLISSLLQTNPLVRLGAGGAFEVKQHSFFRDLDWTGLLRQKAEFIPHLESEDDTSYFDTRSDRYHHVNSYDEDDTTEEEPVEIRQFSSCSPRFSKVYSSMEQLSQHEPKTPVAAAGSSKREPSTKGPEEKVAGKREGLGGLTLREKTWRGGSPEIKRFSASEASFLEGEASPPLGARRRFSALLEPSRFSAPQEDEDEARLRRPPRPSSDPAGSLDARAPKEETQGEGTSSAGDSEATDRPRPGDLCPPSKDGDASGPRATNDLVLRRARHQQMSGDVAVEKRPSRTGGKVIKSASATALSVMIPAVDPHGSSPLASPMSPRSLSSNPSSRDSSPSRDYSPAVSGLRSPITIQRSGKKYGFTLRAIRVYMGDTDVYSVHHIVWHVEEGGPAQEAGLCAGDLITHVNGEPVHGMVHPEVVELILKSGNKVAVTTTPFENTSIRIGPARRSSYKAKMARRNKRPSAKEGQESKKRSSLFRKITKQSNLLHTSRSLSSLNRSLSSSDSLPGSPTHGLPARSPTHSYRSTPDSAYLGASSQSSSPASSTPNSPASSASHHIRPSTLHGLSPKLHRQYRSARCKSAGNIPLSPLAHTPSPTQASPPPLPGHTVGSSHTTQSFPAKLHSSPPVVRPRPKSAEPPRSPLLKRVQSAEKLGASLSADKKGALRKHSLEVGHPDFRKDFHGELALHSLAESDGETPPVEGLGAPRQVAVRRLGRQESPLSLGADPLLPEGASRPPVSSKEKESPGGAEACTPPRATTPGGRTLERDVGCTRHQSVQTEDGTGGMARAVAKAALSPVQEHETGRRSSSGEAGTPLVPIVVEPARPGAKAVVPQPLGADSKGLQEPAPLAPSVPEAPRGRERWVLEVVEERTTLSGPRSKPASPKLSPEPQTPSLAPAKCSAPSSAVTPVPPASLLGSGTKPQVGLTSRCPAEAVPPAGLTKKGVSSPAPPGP

% of control [1]	dTM [2]	pIC50 [3]	pIC50 [4]	pIC50 [5]	% of inhibition [6]	pIC50 [7]	pIC50 [8]	pIC50 [9]	pIC50 [10]	Compound
32%										Nc1ncc2c(n1)-c1c([nH]c3ccc(C4CC4)cc13)CCCC2
	< 3 K	< 4.60	< 4.60	< 4.00	48%	< 4.00	4.40	< 4.30	5.90	COc1cc2c(cc1-c1c(C)noc1C)ncc1[nH]c(=O)n([C@H](C)c3ccccn3)c12
